# “And” between values parts separate entries of the source, which are not always exact repeats. Identical values can stand only once.
# Key:
# MAPK14 (rat) = experiment: Pharmacokinetic Studies
# MAPK14 (human) = MAPK14 (human) (UniProt Q16539); experiment: TNF-alpha Inhibition; details: thp1
# MAPK14 (Lewis rat) = experiment: p38 Inhibition (SCW-Induced Arthritis Model)
# MAPK14 (Balb/c mice) = experiment: TNF-alpha Inhibition (in vivo)
# MAPK14 (mouse) = experiment: p38 Inhibition
# MAPK14 (human), sequence (Q16539 whole entry, looked up): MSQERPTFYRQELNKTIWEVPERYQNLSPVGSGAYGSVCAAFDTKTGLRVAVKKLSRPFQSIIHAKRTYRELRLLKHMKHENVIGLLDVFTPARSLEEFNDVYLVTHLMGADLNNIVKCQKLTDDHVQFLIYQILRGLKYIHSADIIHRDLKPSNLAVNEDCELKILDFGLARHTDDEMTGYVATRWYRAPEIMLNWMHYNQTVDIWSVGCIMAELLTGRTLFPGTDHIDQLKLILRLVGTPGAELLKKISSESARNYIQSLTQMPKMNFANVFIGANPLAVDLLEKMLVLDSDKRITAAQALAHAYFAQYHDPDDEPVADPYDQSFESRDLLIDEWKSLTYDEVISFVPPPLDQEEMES
IC50 (MAPK14 (human)),Structure (SMILES),AUC (MAPK14 (rat)),also measured
3 nM,CCCNC(=O)[C@]1(C)CO[C@@H](c2nc(-c3ccc(F)cc3)c(-c3ccnc(NCc4ccco4)n3)[nH]2)OC1,257 ng·h/mL,–
–,C[C@@H]1C[C@H]2[C@@H]3CCC4=CC(=O)C=C[C@]4(C)[C@@]3(F)[C@@H](O)C[C@]2(C)[C@@]1(O)C(=O)CO,–,score (MAPK14 (Lewis rat)): 22.5
71 nM,COCCCNc1nccc(-c2[nH]c([C@H]3OC[C@@](C)(C(=O)NCCOC)CO3)nc2-c2ccc(F)cc2)n1,138 ng·h/mL,–
–,COCCNc1nccc(-c2[nH]c([C@H]3OC[C@@](C)(C(=O)NCC4CC4)CO3)nc2-c2ccc(F)cc2)n1,121 ng·h/mL,–
0.2 nM,CN(C)C(=O)[C@]1(C)CO[C@@H](c2nc(-c3ccc(F)cc3)c(-c3ccnc(NCC4CC4)n3)[nH]2)OC1,276 ng·h/mL,–
–,C[C@]1(C(=O)NC2CC2)CO[C@H](c2nc(-c3ccc(F)cc3)c(-c3ccnc(NCC4CC4)n3)[nH]2)OC1,288 ng·h/mL,–
9 nM,CN(C)C(=O)[C@]1(C)CO[C@@H](c2nc(-c3ccc(F)cc3)c(-c3ccnc(NCc4ccccn4)n3)[nH]2)OC1,529 ng·h/mL,–
3.5 nM,CCCNC(=O)[C@]1(C)CO[C@@H](c2nc(-c3ccc(F)cc3)c(-c3ccnc(NCCCOC)n3)[nH]2)OC1,738 ng·h/mL,–
60 nM,C[C@]1(C(=O)N2CCOCC2)CO[C@H](c2nc(-c3ccc(F)cc3)c(-c3ccncc3)[nH]2)OC1,247 ng·h/mL and 628 ng·h/mL,Cp (MAPK14 (rat)): 277 ng/mL; ED50 (MAPK14 (Balb/c mice)): Between 3 to 10 mg kg-1; IC50 (MAPK14 (mouse)): 110 µM
2 nM,CN1CCN(C(=O)[C@]2(C)CO[C@@H](c3nc(-c4ccc(F)cc4)c(-c4ccnc(NCC5CC5)n4)[nH]3)OC2)CC1,541 ng·h/mL,bioavailability (MAPK14 (rat); dose or concentration not given here): 20%; score (MAPK14 (Lewis rat)): 40 and 34 and 25
73 nM,C=CCNc1nccc(-c2[nH]c([C@H]3OC[C@@](C)(C(=O)NCCOC)CO3)nc2-c2ccc(F)cc2)n1,169 ng·h/mL,–
–,CC(C)NC(=O)[C@]1(C)CO[C@@H](c2nc(-c3ccc(F)cc3)c(-c3ccnc(NCC4CC4)n3)[nH]2)OC1,412 ng·h/mL,–

# Source: the Kinase Knowledgebase extract (Sharma et al. 2016)
